The target in this assay is Small ubiquitin-related modifier 2 (Homo sapiens) (UniProt P61956). The assay can be described thus: disruption of SUMO2 interaction with SIM peptide – biochemical, fluorescence polarization, uHTS hits, selectivity assay for SUMO1 interaction inhibitor project, dose response (AID 624385). To be noted: SUMO2-SIM peptide binding. (In general: In fluorescence polarisation assays a small probe gives low polarisation when free and higher when bound to something large.)

SMILES strings stand for the structures. The source made the active and inactive calls. The rule behind the calls is not given here. Some results are limits rather than exact numbers.

Chain of Small ubiquitin-related modifier 2 (Homo sapiens) (P61956 whole entry, looked up): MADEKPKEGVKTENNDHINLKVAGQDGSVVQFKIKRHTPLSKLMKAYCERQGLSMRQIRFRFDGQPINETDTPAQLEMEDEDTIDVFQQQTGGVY

Broadly, the IC50 is the concentration at which inhibition is half-maximal. With `N#CC(C(=O)Nc1cccc(Cl)c1)=C1Nc2ccccc2N1`, the IC50 was > 66 µM (inactive).
As for `C[c-]1[c-](C)[c-](C)[c-](C)[c-]1C.[Fe].c1cc2nccc(N3CCCC3)[c-]2c1` (configuration not stated), the IC50 result was “inactive”.

Values taken from PubChem BioAssay AID624385 (Sanford-Burnham Center for Chemical Genomics, 2012).
